Our source for the residual kinase activity values is PMC11167047 (Cell Death Discovery, 2024).

Holding throughout (test): kinome screen (33PanQinase)
What all share (format): biochemical

One assay deals with T1, ACK1 (Homo sapiens, UniProt Q07912).
T1 construct: purchased Reaction Biology Europe GmbH (formerly ProQinase)
The procedure:
(§1) The Kinome Screening was performed by Reaction Biology Europe GmbH (http://reactionbiology.com; Freiburg i. Br., Germany).

The next assay concerns the target T2, CK1γ3 (Homo sapiens, UniProt Q9Y6M4).
T2 construct: purchased Reaction Biology Europe GmbH (formerly ProQinase)
The procedure: as §1

A further assay has as its target T3, CSF1R (Homo sapiens, UniProt P07333).
T3 construct: purchased Reaction Biology Europe GmbH (formerly ProQinase)
The procedure: as §1

A further assay addresses T4, DYRK2 (Homo sapiens, UniProt Q92630).
T4 construct: purchased Reaction Biology Europe GmbH (formerly ProQinase)
T4 sequence (Q92630 1-601): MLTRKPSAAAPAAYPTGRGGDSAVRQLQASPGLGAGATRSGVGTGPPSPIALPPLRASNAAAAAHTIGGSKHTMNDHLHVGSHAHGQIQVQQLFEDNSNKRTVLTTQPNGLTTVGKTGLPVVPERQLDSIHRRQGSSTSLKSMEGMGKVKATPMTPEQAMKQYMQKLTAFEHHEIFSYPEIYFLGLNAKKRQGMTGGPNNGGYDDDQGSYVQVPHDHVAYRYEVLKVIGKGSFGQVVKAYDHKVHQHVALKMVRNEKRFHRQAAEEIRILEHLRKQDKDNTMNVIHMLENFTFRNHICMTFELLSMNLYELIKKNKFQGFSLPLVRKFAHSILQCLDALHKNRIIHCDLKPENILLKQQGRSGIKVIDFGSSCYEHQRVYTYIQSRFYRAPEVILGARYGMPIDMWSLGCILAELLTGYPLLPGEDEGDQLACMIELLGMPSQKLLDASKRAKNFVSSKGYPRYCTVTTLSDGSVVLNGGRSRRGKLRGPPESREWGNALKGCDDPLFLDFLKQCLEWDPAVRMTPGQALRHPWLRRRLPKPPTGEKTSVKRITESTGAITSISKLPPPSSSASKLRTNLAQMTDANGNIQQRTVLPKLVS
Here is the method:
as §1

The target of another assay is T5, EPHA5 (Homo sapiens, UniProt P54756).
T5 construct: purchased Reaction Biology Europe GmbH (formerly ProQinase)
The procedure:
as §1

Another assay addresses T6, EPHA8 (Homo sapiens, UniProt P29322).
T6 construct: purchased Reaction Biology Europe GmbH (formerly ProQinase)
T6 sequence (P29322 28-1005): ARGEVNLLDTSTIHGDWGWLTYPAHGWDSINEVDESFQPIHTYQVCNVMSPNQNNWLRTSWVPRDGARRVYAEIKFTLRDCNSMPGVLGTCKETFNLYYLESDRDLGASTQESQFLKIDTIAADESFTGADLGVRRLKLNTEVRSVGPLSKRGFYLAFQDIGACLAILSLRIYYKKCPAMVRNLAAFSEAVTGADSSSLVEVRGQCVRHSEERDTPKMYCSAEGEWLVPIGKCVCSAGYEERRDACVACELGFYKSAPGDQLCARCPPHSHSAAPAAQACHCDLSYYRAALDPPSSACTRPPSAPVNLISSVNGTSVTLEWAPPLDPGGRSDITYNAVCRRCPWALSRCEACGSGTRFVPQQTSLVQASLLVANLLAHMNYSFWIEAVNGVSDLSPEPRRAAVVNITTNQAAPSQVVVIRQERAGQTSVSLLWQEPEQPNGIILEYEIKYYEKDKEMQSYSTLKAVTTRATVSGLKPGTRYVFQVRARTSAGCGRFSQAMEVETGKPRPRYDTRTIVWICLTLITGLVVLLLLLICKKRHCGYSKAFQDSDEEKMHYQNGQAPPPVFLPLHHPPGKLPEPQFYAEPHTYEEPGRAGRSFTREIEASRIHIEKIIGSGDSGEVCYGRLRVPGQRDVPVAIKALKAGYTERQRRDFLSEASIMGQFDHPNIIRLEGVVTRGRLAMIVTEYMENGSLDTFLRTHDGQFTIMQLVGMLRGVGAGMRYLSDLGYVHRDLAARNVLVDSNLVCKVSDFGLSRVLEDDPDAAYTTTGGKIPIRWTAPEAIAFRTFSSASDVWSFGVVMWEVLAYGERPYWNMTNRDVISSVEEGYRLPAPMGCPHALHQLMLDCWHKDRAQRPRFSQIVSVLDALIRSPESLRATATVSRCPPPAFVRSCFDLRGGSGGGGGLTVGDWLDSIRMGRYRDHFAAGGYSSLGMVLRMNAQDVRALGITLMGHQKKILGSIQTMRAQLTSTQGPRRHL
The procedure: as §1

A further assay addresses T7, LRRK2 (Homo sapiens, UniProt Q5S007).
T7 construct: purchased Reaction Biology Europe GmbH (formerly ProQinase)
Here is the method: as §1

In a further assay the target is T8, PKCν (Homo sapiens, UniProt O94806).
T8 construct: purchased Reaction Biology Europe GmbH (formerly ProQinase)
T8 sequence (O94806 1-890): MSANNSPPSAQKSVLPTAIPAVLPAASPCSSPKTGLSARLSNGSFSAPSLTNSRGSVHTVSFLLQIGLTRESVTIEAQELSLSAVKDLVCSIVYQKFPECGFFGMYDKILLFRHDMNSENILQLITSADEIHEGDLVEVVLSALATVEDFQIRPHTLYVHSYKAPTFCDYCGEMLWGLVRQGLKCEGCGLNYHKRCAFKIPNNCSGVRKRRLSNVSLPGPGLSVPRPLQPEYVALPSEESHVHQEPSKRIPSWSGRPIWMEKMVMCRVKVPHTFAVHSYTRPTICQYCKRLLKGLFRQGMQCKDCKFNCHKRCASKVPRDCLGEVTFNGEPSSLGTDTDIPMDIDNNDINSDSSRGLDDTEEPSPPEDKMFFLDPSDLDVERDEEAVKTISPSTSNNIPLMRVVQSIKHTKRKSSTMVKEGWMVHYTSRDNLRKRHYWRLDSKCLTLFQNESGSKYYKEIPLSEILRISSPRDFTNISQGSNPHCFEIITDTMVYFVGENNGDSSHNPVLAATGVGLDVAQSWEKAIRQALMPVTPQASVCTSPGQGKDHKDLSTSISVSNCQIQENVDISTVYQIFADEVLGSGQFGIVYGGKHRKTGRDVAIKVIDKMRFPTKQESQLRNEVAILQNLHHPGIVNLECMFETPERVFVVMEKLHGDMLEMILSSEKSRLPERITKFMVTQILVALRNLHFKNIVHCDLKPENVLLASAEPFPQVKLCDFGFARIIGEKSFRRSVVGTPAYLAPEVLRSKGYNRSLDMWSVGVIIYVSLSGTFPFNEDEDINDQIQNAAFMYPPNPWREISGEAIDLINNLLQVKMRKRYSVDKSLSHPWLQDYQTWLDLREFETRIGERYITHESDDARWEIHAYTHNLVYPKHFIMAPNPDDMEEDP
The procedure: as §1

T3 sequence (P07333 20-972): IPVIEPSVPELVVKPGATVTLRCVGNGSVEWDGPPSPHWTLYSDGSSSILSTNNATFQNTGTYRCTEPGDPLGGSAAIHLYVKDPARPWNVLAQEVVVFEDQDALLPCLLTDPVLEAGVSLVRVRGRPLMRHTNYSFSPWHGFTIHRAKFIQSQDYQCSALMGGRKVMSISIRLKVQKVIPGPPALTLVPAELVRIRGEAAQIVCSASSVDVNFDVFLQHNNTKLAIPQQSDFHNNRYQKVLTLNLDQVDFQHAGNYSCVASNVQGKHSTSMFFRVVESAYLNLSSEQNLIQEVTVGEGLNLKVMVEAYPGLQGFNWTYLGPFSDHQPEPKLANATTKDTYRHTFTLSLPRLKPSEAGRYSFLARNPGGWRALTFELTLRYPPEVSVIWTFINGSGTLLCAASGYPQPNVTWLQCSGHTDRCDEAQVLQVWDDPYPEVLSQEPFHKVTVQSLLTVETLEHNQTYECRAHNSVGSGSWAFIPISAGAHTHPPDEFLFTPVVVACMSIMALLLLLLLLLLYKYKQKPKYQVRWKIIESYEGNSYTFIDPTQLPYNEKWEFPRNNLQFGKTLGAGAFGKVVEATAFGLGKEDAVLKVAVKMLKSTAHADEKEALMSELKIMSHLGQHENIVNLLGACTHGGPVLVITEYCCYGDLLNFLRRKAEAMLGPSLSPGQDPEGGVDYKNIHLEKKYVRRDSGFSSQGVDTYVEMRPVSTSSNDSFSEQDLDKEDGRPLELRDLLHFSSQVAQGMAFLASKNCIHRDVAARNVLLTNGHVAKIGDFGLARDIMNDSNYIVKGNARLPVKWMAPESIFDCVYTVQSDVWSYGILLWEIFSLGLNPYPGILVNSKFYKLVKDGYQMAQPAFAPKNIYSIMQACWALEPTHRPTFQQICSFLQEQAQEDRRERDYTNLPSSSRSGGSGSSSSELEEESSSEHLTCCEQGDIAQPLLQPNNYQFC
T5 sequence (P54756 25-1037): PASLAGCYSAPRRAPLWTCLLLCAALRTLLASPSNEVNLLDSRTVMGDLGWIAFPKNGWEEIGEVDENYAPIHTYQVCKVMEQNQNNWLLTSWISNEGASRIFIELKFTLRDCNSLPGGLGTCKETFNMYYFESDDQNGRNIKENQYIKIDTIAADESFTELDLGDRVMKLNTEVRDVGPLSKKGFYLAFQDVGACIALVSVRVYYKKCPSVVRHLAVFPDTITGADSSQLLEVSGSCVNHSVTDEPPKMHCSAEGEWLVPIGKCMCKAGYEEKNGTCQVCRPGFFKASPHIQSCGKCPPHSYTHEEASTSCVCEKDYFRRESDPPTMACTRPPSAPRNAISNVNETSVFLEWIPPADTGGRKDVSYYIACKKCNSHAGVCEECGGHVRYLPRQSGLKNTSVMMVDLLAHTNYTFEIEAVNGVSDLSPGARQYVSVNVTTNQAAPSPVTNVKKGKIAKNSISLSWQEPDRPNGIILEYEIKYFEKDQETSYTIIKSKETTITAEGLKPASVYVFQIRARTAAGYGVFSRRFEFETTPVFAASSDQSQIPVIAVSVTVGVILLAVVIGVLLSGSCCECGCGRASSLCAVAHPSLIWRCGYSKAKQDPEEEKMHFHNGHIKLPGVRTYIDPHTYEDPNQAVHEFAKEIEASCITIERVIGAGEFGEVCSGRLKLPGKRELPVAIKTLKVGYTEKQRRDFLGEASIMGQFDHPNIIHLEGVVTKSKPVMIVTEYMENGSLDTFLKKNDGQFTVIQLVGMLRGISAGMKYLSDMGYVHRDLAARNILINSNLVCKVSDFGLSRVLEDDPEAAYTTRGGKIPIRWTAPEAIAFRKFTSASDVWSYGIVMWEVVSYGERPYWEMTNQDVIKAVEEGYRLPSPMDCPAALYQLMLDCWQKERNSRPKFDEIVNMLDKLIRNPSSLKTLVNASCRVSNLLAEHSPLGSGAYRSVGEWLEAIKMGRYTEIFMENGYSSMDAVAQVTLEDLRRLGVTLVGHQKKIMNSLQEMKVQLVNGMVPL
T1 sequence (Q07912 whole entry): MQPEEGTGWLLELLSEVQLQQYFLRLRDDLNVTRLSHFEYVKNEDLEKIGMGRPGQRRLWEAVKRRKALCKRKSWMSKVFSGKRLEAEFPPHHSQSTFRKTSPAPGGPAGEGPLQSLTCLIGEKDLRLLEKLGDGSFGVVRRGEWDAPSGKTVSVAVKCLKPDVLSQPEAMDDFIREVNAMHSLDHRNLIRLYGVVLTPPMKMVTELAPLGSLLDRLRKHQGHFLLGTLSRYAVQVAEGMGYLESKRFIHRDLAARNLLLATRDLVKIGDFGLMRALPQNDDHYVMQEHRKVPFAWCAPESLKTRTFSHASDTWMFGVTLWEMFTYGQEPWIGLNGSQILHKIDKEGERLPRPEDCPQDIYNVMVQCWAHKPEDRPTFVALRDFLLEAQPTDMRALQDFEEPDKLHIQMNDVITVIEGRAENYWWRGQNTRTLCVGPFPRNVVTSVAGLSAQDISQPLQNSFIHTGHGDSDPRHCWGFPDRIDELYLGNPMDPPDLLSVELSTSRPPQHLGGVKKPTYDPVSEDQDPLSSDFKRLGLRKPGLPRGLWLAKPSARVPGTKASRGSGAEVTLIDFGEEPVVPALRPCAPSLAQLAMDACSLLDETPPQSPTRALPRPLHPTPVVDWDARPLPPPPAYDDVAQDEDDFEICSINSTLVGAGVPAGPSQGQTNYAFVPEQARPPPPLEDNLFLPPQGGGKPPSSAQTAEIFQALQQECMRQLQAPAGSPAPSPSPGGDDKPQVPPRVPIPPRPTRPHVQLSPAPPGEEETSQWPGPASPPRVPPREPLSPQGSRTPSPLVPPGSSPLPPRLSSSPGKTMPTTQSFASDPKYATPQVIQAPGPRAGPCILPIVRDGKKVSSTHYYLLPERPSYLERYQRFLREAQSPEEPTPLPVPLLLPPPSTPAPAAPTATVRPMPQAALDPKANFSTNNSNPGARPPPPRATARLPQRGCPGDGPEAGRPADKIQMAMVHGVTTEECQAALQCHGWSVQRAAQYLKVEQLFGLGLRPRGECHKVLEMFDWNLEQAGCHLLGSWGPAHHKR
T2 sequence (Q9Y6M4 whole entry): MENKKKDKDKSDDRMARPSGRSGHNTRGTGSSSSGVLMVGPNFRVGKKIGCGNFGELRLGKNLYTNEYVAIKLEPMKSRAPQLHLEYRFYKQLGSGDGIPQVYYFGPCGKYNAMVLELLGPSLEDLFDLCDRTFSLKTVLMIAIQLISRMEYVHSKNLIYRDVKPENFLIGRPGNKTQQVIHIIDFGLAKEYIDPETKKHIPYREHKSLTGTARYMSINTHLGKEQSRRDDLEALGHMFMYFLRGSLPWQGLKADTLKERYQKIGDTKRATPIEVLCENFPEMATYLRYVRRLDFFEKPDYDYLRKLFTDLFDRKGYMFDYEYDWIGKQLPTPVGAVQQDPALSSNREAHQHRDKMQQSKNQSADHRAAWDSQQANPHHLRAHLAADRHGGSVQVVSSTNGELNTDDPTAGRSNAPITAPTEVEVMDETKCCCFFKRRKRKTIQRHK

In the case of `c1ccc(CNc2cc(-c3c[nH]c4ncccc34)ccn2)cc1` [meriolin 36], the residual kinase activity at ACK1 (0.3 µM) is 59 % of control; at ACK1 (3 µM), 15 % of control; at CK1γ3 (0.3 µM) it was 49 % of control; at CK1γ3 (3 µM) it was 9 % of control; on CSF1R (0.3 µM), 33 % of control; on CSF1R (3 µM) it was 14 % of control. Moreover, the residual kinase activity at DYRK2 (0.3 µM) was 31 % of control; at DYRK2 (3 µM) it was 4 % of control; at EPHA5 (0.3 µM), 146 % of control; on EPHA5 (3 µM), 84 % of control; at EPHA8 (0.3 µM), 113 % of control; on EPHA8 (3 µM) it was 94 % of control. Further, the residual kinase activity at LRRK2 (0.3 µM) was 1 % of control; on LRRK2 (3 µM), 1 % of control; on PKCν (0.3 µM) it was 62 % of control; on PKCν (3 µM), 17 % of control.

On to `COc1ccnc2[nH]cc(-c3cc(N)nc(N)c3)c12` [meriolin 16], for which the residual kinase activity at ACK1 (0.03 µM) is 83 % of control; on ACK1 (0.3 µM) it was 72 % of control; on CK1γ3 (0.03 µM), 77 % of control; on CK1γ3 (0.3 µM), 22 % of control; at CSF1R (0.03 µM), 90 % of control; on CSF1R (0.3 µM), 88 % of control. The residual kinase activity was 6 % of control on DYRK2 (0.03 µM); 1 % of control at DYRK2 (0.3 µM); 115 % of control on EPHA5 (0.03 µM); 102 % of control at EPHA5 (0.3 µM); 119 % of control on EPHA8 (0.03 µM); 107 % of control on EPHA8 (0.3 µM). Also, the residual kinase activity on LRRK2 (0.03 µM) is reported as 50 % of control; on LRRK2 (0.3 µM), 8 % of control; at PKCν (0.03 µM), 89 % of control; at PKCν (0.3 µM), 32 % of control.
